Results reported in US7968724B2, “Ester derivatives as phosphodiesterase inhibitors” (Chiesi Farmaceutici S.p.A., priority 2007, dated 2011).
pIC50: −log10 of the molar value.

Experiments:
[1] = test system: LPS-induced TNF-α release in peripheral blood mononuclear cells (PBMCs); experiment: PDE4 inhibitory activity in the PBMCs assay (LPS-induced TNF-α release); assay type: cell-based; details: PBMC; human PBMCs, LPS 3 ng/ml, 18 hours; read-out: IC50 in the PBMCs assay (50% inhibition of LPS-induced TNF-α release)
Description: The assay, which is based on the known inhibitory activity exerted by PDE4 inhibitors on the lipopolyshaccarides (LPS)-induced tumour necrosis factor-alpha (TNF-α release in peripheral blood mononuclear cells (PBMCs), is performed according to a method previously described (Hatzelmann A et al., J. Pharmacol. Exp. Ther., 2001; 297:267-279; and Draheim R et al., J. Pharmacol. Exp. Ther., 2004; 308:555-563. Cryopreserved human PBMCs, (100 μl/well) are incubated in 96-well plates (10^5 cells/well), for 30 minutes, in the presence or absence (50 microl) of the test compounds whose concentrations ranged from 10^−12 M to 10^−6 M. Subsequently, LPS (3 ng/ml) is added. After 18 hours of incubation at 37° C. in a humidified incubator under an atmosphere of 95% air and 5% CO2, culture medium is collected and TNF-α measured by ELISA.
The results are expressed as mean±95% confidence limits of the molar concentration of the test compound producing 50% inhibition of LPS-induced TNF-α release (IC50). […] The effects of the tested compounds are calculated as percentage of inhibition of TNF-α release, assuming LPS-induced TNF-α production in the absence of inhibitor compound as 100% and basal TNF-α production of PBMCs in the absence of LPS as 0%.

[2] = test system: LPDE4; experiment: Ability to inhibit low affinity LPDE4 (cAMP disappearance) versus competing for high affinity HPDE4 ([H3]rolipram binding); assay type: biochemical
From the text: Advantageously the compounds of the invention are characterized by a selectivity toward LPDE4 higher than that toward HPDE4 as obtained by the determination of their IC50. In the case of LPDE4, the IC50 is the molar concentration of the test compound producing 50% inhibition of cAMP disappearance, assessed as described in Cortijo J et al., Br. J. Pharmacol., 1993, 108: 562-568, while in the case of HPDE4, the IC50 is the molar concentration of the test compound producing 50% inhibition of the binding of [H^3] rolipram, assessed as described in Duplantier A J et al., J. Med. Chem., 1996; 39: 120-125. Preferably the HPDE4/LPDE IC50 ratio for the compounds of the invention is higher than 10, more preferably higher than 100, even more preferably higher than 300.
The affinity toward LPDE4 and HPDE4 is assessed as previously described respectively in Cortijo J et al., Br. J. Pharmacol., 1993, 108: 562-568 and Duplantier A J et al., J. Med. Chem., 1996; 39: 120-125. The activity of compounds 1, 2, 4, 5, 6, and 7 is evaluated.

[3] = test system: LPDE4; details: literature, Giembycz et al. 2001; cited from earlier work
[4] = test system: HPDE4; details: literature, Giembycz et al. 2001; cited from earlier work

SMILES | inhibition of LPDE4 (affinity) [2] | pIC50 [1] | HPDE4/LPDE4 ratio [3] | pIC50 [3] | pIC50 [4]
COc1ccc([C@]2(C#N)CC[C@@H](C(=O)O)CC2)cc1OC1CCCC1 [cilomilast] |  |  | about 1.3 | 7.05 | 6.92
COc1ccc(C(=Cc2c(Cl)c[n+]([O-])cc2Cl)OC(=O)c2ccccc2)c2c1oc1ccc([N+](=O)[O-])cc12 [Compound 6, Benzoic acid 2-(3,5-dichloro-1-oxy-pyridin-4-yl)-1-(4-methoxy-8-nitro-dibenzofuran-1-yl)-vinyl ester] | nanomolar affinity |  |  |  | 
COc1ccc(C(=Cc2c(Cl)cncc2Cl)OC(=O)c2ccccc2)c2c1oc1ccccc12 [Compound 2, Benzoic acid 2-(3,5-dichloro-pyridin-4-yl)-1-(4-methoxy-dibenzofuran-1-yl)-vinyl ester] | nanomolar affinity | 6.82 to 9.00 |  |  | 
COc1ccc(C(=Cc2c(Cl)cncc2Cl)OC(=O)c2ccccc2)c2c1oc1ccc([N+](=O)[O-])cc12 [Compound 1, Benzoic acid 2-(3,5-dichloro-pyridin-4-yl)-1-(4-methoxy-8-nitro-dibenzofuran-1-yl)-vinyl ester] | nanomolar affinity | 6.82 to 9.00 |  |  | 
COc1ccc(C(=Cc2c(Cl)cncc2Cl)OC(=O)c2ccccc2)c2c1oc1ccc(N)cc12 [Compound 4, Benzoic acid 2-(3,5-dichloro-pyridin-4-yl)-1-(4-methoxy-8-amino-dibenzofuran-1-yl)-vinyl ester] | nanomolar affinity | 6.82 to 9.00 |  |  | 

Second part, led by results:

inhibition of LPDE4 (affinity) [2] | SMILES | pIC50 [1] | HPDE4/LPDE4 ratio [3] | pIC50 [3] | pIC50 [4]
nanomolar affinity | COc1ccc(C(=Cc2c(Cl)cncc2Cl)OC(=O)c2ccccc2)c2c1oc1ccc(NS(C)(=O)=O)cc12 [Compound 5, Benzoic acid 2-(3,5-dichloro-pyridin-4-yl)-1-(8-methanesulfonylamino-4-methoxy-dibenzofuran-1-yl)-vinyl ester] | 6.82 to 9.00 |  |  | 
nanomolar affinity | COc1ccc(C(=Cc2c(Cl)c[n+]([O-])cc2Cl)OC(=O)c2ccccc2)c2c1oc1ccccc12 [Compound 7, Benzoic acid 2-(3,5-dichloro-1-oxy-pyridin-4-yl)-1-(4-methoxy-dibenzofuran-1-yl)-vinyl ester] | 6.82 to 9.00 |  |  | 
